# What was measured:
# [1] = tested on: IL-1β-stimulated GAG release, bovine chondrocyte pellets / ARC tissues; experiment: chondrocyte pellet culture model: GAG degradation; format: cell-based; details: for GAG Release: Pellet Assay
# Excerpt: (§1) Calf articular cartilage was obtained from the knee joints of eight to twelve month old animals and was processed within twenty-four hours after sacrifice. After removal of muscle and ligament, the cartilage was kept moist using phosphate buffer solution (PBS) to prevent tissue dehydration, and was aseptically peeled off from subchondral bone with a scalpel, and the cartilage pieces were further minced into smaller pieces (˜0.3-0.5×˜0.2-0.5 cm cubes). […] Chondrocytes were then enzymatically isolated from the tissue by incubation for overnight at 37° C. with gentle agitation in 0.2% collagenase in Dulbecco's modified eagle media (DMEM). After removal of tissue debris by filtration through cell strainer and the residual collagenase by 3× wash in PBS, cells were finally resuspended at a density of 2.5×10^6 cells/ml in chondrocyte medium. A 1 ml aliquot of the cell suspension was dispensed into either a 15 ml Falcon centrifuge tube or a 96 deep-well plate and centrifuged at 2000×g for five minutes. The chondrocyte pellets were incubated at 37° C. in a humidified atmosphere of 5% CO2 for two to three weeks with a medium change every other day.
# (§2) As an alternative to using calf articular cartilage, a commercial Alginate Recovered Chondrocytes (ARC) system was also used (Articular Engineering, LLC (Northbrook, Ill.)). Use of the commercial system cut down on labor and time in producing chondrocyte pellet. This system produced cartilaginous tissue in vitro using bovine chondrocytes. The first step consisted of culturing chondrocytes in alginate under conditions optimal for the formation of a cell-associated matrix (CM). The second step allowed these cells with their CM, after recovery, to rapidly form and become integrated into a solid mass of cartilage on a porous insert within two weeks. This tissue is rich in cells surrounded by a cell-associated matrix that is degraded rapidly when the cells are exposed to IL-1. ARC tissues in 3 mm punches at delivery were first dispensed into a 96 deep-well plate, one punch per well, for compound treatment. The subsequent procedures were the same as those used for the chondrocyte pellets.
# (§3) Chondrocyte pellets were washed once with 1 ml of Chondrocyte Stimulation Medium and equilibrated in the same medium at room temperature for fifteen to thirty minutes. Compounds were dissolved in H2O, Ethanol or dimethyl sulfoxide (DMSO) (10^−2 M) according to suppliers' instructions and further diluted with Chondrocyte Stimulation Medium to the required concentrations. DMSO concentrations in the culture media should not exceed 1%; this concentration of DMSO has no effect on cartilage proteoglycan metabolism in response to cytokines.
# […] At the end of the incubation, media and pellets were harvested and frozen for further analysis. Pellets were also fixed as needed in 4% (w/v) paraformaldehyde in PBS for histology analysis.
# Glycosaminoglycan (GAG) levels in the culture media were determined by measuring the amount of polyanionic material reacting with 1,9-dimethylmethylene blue (DME) as detected by absorbance at 525 nm, using shark chondroitin sulfate as a standard. The DME blue dye-binding solution was prepared by dissolving 16 mg of DME blue in a solution containing 0.304% glycine, 0.23% sodium chloride (NaCl), 9.5 mM hydrochloric acid (HCl), pH=3.0 with absorbance at 525 equal to 0.31. Proteoglycans and proteoglycan metabolites in chondrocyte pellet were released by digesting the pellet with 125 μg/ml of papain in 0.1 M PBS, pH 6.0, 5 mM cysteine, 5 mM ethylene-diamine-tetra-acetic acid disodium salt (Na2EDTA) at 50° C. for overnight. Results are reported as either micrograms of GAG per milliliter or percent of total GAG released into culture medium.
# [2] = tested on: injured cartilage explants; format: cell-based
# Excerpt: (§4) The device comprises a vertical rail that guides a sliding weight from 0.1 kg to 3 kg directly onto a force transducer which is situated at the bottom of the device. A sphere-shaped 2 mm indenter resting on a specimen is located at the bottom of the vertical rail. The indenter is held by a stop screw. The specimen is rigidly attached to a tissue holder underneath the indenter, to avoid side movements, the specimen is rigidly attached to the tissue holder. In this manner, the force transducer transduces a force indirectly onto the specimen. Adjusting the weight of a mass and height from which the mass drops varies the magnitude of the intended impact. For example, a weight mass (e.g., […]) held by a weight holder can be released from a height of e.g., 36 cm and dropped onto the force transducer.
# [3] = tested on: IL-1β-stimulated PGE2 synthesis, bovine chondrocyte pellets / ARC tissues; experiment: chondrocyte pellet culture model: PGE2; format: cell-based; details: for PGE2 Inhibition: Pellet Assay
# Excerpt: as §1, §2, §3
# (§5) The pellets were first treated with compounds at desired concentrations at 37° C. for one hour and then incubated for three to five days in the absence or presence of 10 ng/ml of IL-1β. At the end of the incubation, media and pellets were harvested and frozen for further analysis. Pellets were also fixed as needed in 4% (w/v) paraformaldehyde in PBS for histology analysis.
# Prostaglandin E2 (PGE2) was measured with a STAT-Prostaglandin E2 EIA ELISA kit (Cayman Biochemicals). This assay is based on the competition between PGE2 from 50 μl samples and a PGE2-alkaline phosphatase conjugate for a limited amount of PGE2 monoclonal antibody in a reaction volume of 150 μl at room temperature for one hour. The antibody-PGE2 complex bound to a goat polyclonal anti-mouse IgG that had been previously attached to the well. After washing to remove any unbound reagents, para-nitrophenyl phosphate (pNPP) was added to the well. The product of this enzymatic reaction absorbs strongly at 412 nm. Because of the large range in response to IL-1β and other cytokines, PGE2 values were converted to log scale prior to doing t-tests.
# [4] = tested on: injured cartilage explants, GAG release; experiment: drop tower design model: GAG release; format: cell-based, bovine
# Excerpt: as §4
# Samples for compound evaluation were tested using either of two different methods to induce inflammatory conditions. One method utilized media conditioned from peripheral blood mononuclear cells (PBMCs) stimulated with LPS (“+LPS”) or non-inflammatory media without LPS (“−LPS”). Another method utilized the absence or presence of a cocktail of cytokines.
# In the first method, bovine or human PBMCs were freshly prepared using Ficoll gradient by Lampire Biological Laboratories, Inc. PBMCs in RPMI w/10% FCS at delivery were spun down at 1500 rpm for twenty minutes and the cell pellet was washed twice with 1×PBS to wash off the residual Ficoll. The cells were then resuspended at a density of 1×10^6/ml in RPMI supplemented with 10% FCS, 1× Antibiotics-Antimycotics. The suspension was divided into two aliquots. One aliquot was stimulated with 10 μg/ml of LPS and the other was not stimulated. Both aliquots were then incubated at 37° C., 5% CO2 for twenty-four to seventy-two hours. The conditioned media with or without LPS stimulation are collected, aliquoted, and stored in −80° C. for a maximum of three months. Each conditioned medium was assessed for levels of pro-inflammatory cytokines to ensure their secretion from PBMC. A representative cytokine, IL-6, was assayed by ELISA using a Human IL-6 Quantikine kit and it was shown that the LPS-stimulated medium had at least 10 ng/ml of IL-6, while IL-6 was undetectable in the unstimulated medium.
# In the second method, the explants were cultured at 37° C., 5% CO2 either in stimulated or non-stimulated conditioned medium as described above or in defined medium containing DMEM supplemented with 1% FCS, 1× insulin-transferrin-sodium selenite media supplement and Antibiotics-Antimycotics in the presence or absence of a cocktail of cytokines containing 10 ng/ml of IL-1β, 100 ng/ml of TNFα and 5 ng/ml of IFN-γ. The compounds were solubilized in H2O, Ethanol or DMSO (10^−2 M) according to suppliers' instructions and further diluted with either conditioned medium stimulated with or without LPS to the required concentrations. DMSO concentrations in the culture media never exceeded 1%. This concentration of DMSO has no effect on cartilage proteoglycan metabolism in response to cytokines. The injured and noninjured cartilage explants were treated with compound-containing medium for three to five days. The specimens were first treated with compounds at desired concentrations at 37° C. for one hour and then incubated for three to five days in the absence or presence of the cocktail of cytokines. At the end of the incubation, media and cartilage samples were harvested and frozen for further analysis.
# Glycosaminoglycan (GAG) levels in the culture media or cartilage were determined by measuring the amount of polyanionic material reacting with 1,9-dimethylmethylene blue (DME) as detected by absorbance at 525 nm, using shark chondroitin sulfate as a standard. The DME blue dye-binding solution was prepared by dissolving 16 mg of DME blue in a solution containing 0.304% glycine, 0.23% NaCl, 9.5 mM HCl, pH=3.0 with A525 equaling 0.31. […]
# [5] = tested on: IL-1β-stimulated NO production, bovine chondrocyte pellets / ARC tissues; experiment: chondrocyte pellet culture model: total nitrite/nitrate (NO); format: cell-based; details: Pellet Assay
# Excerpt: as §1, §2, §3, §5
# Nitrate/Nitrite levels were measured using the Griess reaction (Green L. C. et al., “Analysis of Nitrate, Nitrite, and [15N]nitrate in Biological Fluids,” Anal. Biochem. 126: 131-138 (1982)) with aNitrate/Nitrite Colorimetric Assay Kit (Cayman Chemicals), the contents of which are incorporated herein by reference. The assay involved a simple two-step process. The first step involved conversion of nitrate in 50 μl of culture medium to nitrite utilizing nitrate reductase in a reaction volume of 100 μl at room temperature for two hours. The second step involved the addition of 50 μl of both Griess Reagent 1 and 2, which converted nitrite into a deep purple azo compound in ten minutes. Photometric measurement of the absorbance at 540 or 550 nm due to this azo chromophore accurately determined nitrite concentration. […]
# [6] = tested on: PG release, arthritic joint tissues; details: 10^−5 moles/liter or 10^−7 moles/liter; cited from earlier work
# chondrocytes = format: cell-based
# Excerpt: as §1, §2, §3, §5
# The LDH activity was determined colorimetrically in an enzymatic test based on the conversion of lactic acid to pyruvate in the presence of chromagenic substrate tetrazolium salt INT that was reduced to formazan.
molecule,measurement,setting,value
"CC(C(=O)O)c1ccc(C(=O)c2ccccc2)s1 (stereo not shown) [Tiaprofenic Acid, reference compound]",GAG Release,[1],No effect
"O=C(O)c1cc(O)c2c(c1)C(=O)c1cccc(O)c1C2=O [Rhein, reference compound]",lowest concentration inhibiting proteoglycan degradation,"[1]; 10 ng/ml IL-1β, five days",≤ 0.035 µM
same,"cytotoxicity (LDH, words)",[2],tolerant
same,PGE2 synthesis,"[3]; diacerein at 5.4 μM, rhein at 0.35 μM, 10 ng/ml IL-1β",no effect
"CN1C(C(=O)Nc2ccccn2)=C(O)c2ccccc2S1(=O)=O [Piroxicam, reference compound]","GAG, inhibition of degradation/release","[4]; injured cartilage explants, inflammatory conditions",No effect
same,GAG Release,[1],No effect
"Cc1ccc(C(=O)c2ccc(CC(=O)O)n2C)cc1 [Tolmetin, reference compound]",GAG Release,[1],No effect
same,NO Inhibition,[5],No effect
O=C(O)Cc1ccccc1Nc1c(Cl)cccc1Cl [diclofenac],PG release from arthritic joint tissues,[6],significantly inhibited
"CO[C@H]1C[C@@H]2CC[C@@H](C)[C@@](O)(O2)C(=O)C(=O)N2CCCC[C@H]2C(=O)O[C@H]([C@H](C)C[C@@H]2CC[C@@H](O)[C@H](OC)C2)CC(=O)[C@H](C)/C=C(\C)[C@@H](O)[C@@H](OC)C(=O)[C@H](C)C[C@H](C)/C=C/C=C/C=C/1C [Rapamycin, reference compound]",inhibition at 0.01 µM,"[4]; Bos taurus, at 0.01 μM",84%
same,"cytotoxicity to chondrocytes (LDH, words)",chondrocytes,little toxicity
same,"cytotoxicity (LDH, words)",[2],little cytotoxicity
"CC1(C)O[C@@H]2[C@@H](CO[C@@]3(COS(N)(=O)=O)OC(C)(C)O[C@@H]23)O1 [Topramax, reference compound]",GAG Release,[1],No effect
same,NO Inhibition,[5],No effect
same,PGE2 Inhibition,[3],No effect
COc1ccc2c(c1)c(CC(=O)O)c(C)n2C(=O)c1ccc(Cl)cc1 [indomethacin],PG release from arthritic joint tissues,[6],significantly inhibited
Madecassoside,GAG Release,[1],No effect
same,NO Inhibition,[5],No effect
same,PGE2 Inhibition,[3],No effect
